Marks after values point to notes of the source that are not given here. Non-standard residues stand in square brackets, D forms with d. Residues, ends and D or L forms follow the SMILES beside them.
What was measured:
Assay type in all cases: in vivo, ICR mice
Pseudomonas aeruginosa = experiment: Therapeutic test of injection on mice with systemic infection, survival time; settings: for Mean survival Time: observed fourteen days; for Mean survival Time / Mortality of mice in different days after infection: n = 10
Source text: (§1) There are 30 male and 30 female ICR mice with the weight ranging from 18 g to 22 g. According to their weight, they are randomly divided into 6 groups of 10 mice: blank control group, negative control group, Levofloxacin positive control group, PL-13 (SEQ ID NO: 1) high dose group, PL-13 (SEQ ID NO: 1) middle dose group and PL-13 (SEQ ID NO: 1) low dose group. Each group is raised in the same plastic case. With trinitrophenal marking method, all the mice are raised with ordinary animal feeds in the ordinary animal houses and they can drink water freely. Alternating of light and dark is conducted every 12 hours.
(§2) 2. Infected Strains: Pseudomonas aeruginosa and Staphylococcus aureus
(§3) PL-18 (SEQ ID NO: 1) freeze-dried powder injections (supplied by Jiangsu ProteLight Pharmaceutical & Biotechnology Co., LTD.), Levofloxacin Hydrochloride and Sodium Chloride Injection (supplied by Yangtze River Pharmaceutical Group) and 0.9% Sodium Chloride Injection (supplied by Chifeng Rongjitang Pharmaceutical CO., Ltd.)
(§4) (1) The preparation of bacterial suspension is the same as above.
(§5) (2) The Pseudomonas aeruginosa suspension cultured overnight is diluted to 1×10^9CFU/ml. The Staphylococcus aureus suspension cultured overnight is diluted to 1×10^8CFU/ml. They are all applied in reserve.
(§6) (3) Except the blank control group, every other mouse is injected with 0.2 ml Pseudomonas aeruginosa suspension with the concentration of 1×10^9CFU/ml or 0.2 ml Staphylococcus aureus suspension with the concentration of 1×10^8CFU/ml intraperitoneally to make model.
(§7) (4) Administration: Inject the drugs according to weight right after the model is ready. All the groups excepting the blank and the negative infected group are injected with different dosage of different injections through caudal vena twice a day successively for three days, and they are observed for fourteen days.
(§8) (5) Observe death of the animals and record their survival time.

Staphylococcus aureus = experiment: as above; settings: for Mean survival Time: observed fourteen days; for Mean survival Time / Mortality of mice in different days after infection: n = 10
Source text: as §1, §2, §3, §4, §5, §6, §7, §8

[1] = system: Candida albicans and Escherichia; experiment: Therapeutic experiment of injection on mice with multiple mixed infections, survival time; settings: for Mean survival Time / average survival time: observed fourteen days; for Mean survival Time / Mortality of mice in different days after infection: n = 20; for average survival time: injection through caudal vena twice a day for three days
Protocol: as §1, with “60” for “30”, “20” for “10”, “and high, middle and low dose of PL-18” for “PL-13”, “1)” for “1) high dose group, PL-13 (SEQ ID NO: 1) middle dose group and PL-13 (SEQ ID NO: 1) low dose”, “group.” for “group. Each group is raised in the same plastic case.”
2. Infected Strains: Candida albicans and Escherichia
as §3, with “injection” for “injections”
as §4
(2) The Candida albicans suspension cultured overnight is diluted to 1×10^6CFU/ml with Sodium Chloride and 5×10^5CFU of which is injected into abdominal cavity of every mouse; the Escherichia suspension cultured overnight is diluted to 2×10^8CFU/ml and 1×10^7CFU of which is injected into abdominal cavity of every mouse to make model with mixed infections.
(3) The blank control group is injected with normal saline into their abdominal cavity, the positive control group is injected with Levofloxacin into their abdominal cavity.
(4) Administration: The drugs are administered according to weight right after the model is ready. All the groups except the blank and the infected negative control group are injected with different dosage of different injections through caudal vena twice a day successively for three days, and they are observed for fourteen days.
as §8

[2] = 0.2 mg/kg (low) caudal vena twice a day for three days
[3] = 1 mg/kg (middle) caudal vena twice a day for three days
[4] = 5 mg/kg (high) caudal vena twice a day for three days
[5] = day 1, 0.2 mg/kg (low) caudal vena twice a day for three days
[6] = day 1, 1 mg/kg (middle) caudal vena twice a day for three days
[7] = day 1, 5 mg/kg (high) caudal vena twice a day for three days
[8] = day 2, 0.2 mg/kg (low) caudal vena twice a day for three days
[9] = day 2, 1 mg/kg (middle) caudal vena twice a day for three days
[10] = day 2, 5 mg/kg (high) caudal vena twice a day for three days
[11] = day 3, 0.2 mg/kg (low) caudal vena twice a day for three days
[12] = day 3, 1 mg/kg (middle) caudal vena twice a day for three days
[13] = day 3, 5 mg/kg (high) caudal vena twice a day for three days
[14] = day 4, 0.2 mg/kg (low) caudal vena twice a day for three days
[15] = day 4, 1 mg/kg (middle) caudal vena twice a day for three days
[16] = day 4, 5 mg/kg (high) caudal vena twice a day for three days
[17] = day 5, 0.2 mg/kg (low) caudal vena twice a day for three days
[18] = day 5, 1 mg/kg (middle) caudal vena twice a day for three days
[19] = day 5, 5 mg/kg (high) caudal vena twice a day for three days

CC(=O)N[C@H](Cc1ccccc1)C(=O)N[C@H](CCCCN)C(=O)N[C@H](CCCCN)C(=O)N[C@H](CC(C)C)C(=O)N[C@H](CCCCN)C(=O)N[C@H](CCCCN)C(=O)N[C@H](CC(C)C)C(=O)N[C@H](Cc1ccccc1)C(=O)N[C@H](CO)C(=O)N[C@H](CCCCN)C(=O)N[C@H](CC(C)C)C(=O)N[C@H](Cc1c[nH]c2ccccc12)C(=O)N[C@H](CC(N)=O)C(=O)N[C@H](Cc1c[nH]c2ccccc12)C(=O)N[C@H](CCCCN)C(N)=O [PL-18] (Ac-[dF][dK][dK][dL][dK][dK][dL][dF][dS][dK][dL][dW][dN][dW][dK]-NH2)
4: Mortality of mice in different days after infection [1, 5] | Mortality of mice in different days after infection [1, 8] | Mortality of mice in different days after infection [1, 9]
7.7** day: Mean survival Time (Pseudomonas aeruginosa; [3])
5.7 days: average survival time ([1]; middle dosage group)
3: Mortality of mice in different days after infection [1, 12]
4.4 days: average survival time ([1]; low dosage group)
5: Mortality of mice in different days after infection [1, 6] | Mortality of mice in different days after infection [1, 7] | Mortality of mice in different days after infection [1, 10] | Mortality of mice in different days after infection [1, 11]
2: Mortality of mice in different days after infection (Pseudomonas aeruginosa; [8]) | Mortality of mice in different days after infection (Pseudomonas aeruginosa; [12]) | Mortality of mice in different days after infection (Pseudomonas aeruginosa; [13]) | Mortality of mice in different days after infection (Pseudomonas aeruginosa; [14]) | Mortality of mice in different days after infection (Pseudomonas aeruginosa; [15]) | Mortality of mice in different days after infection (Pseudomonas aeruginosa; [16]) | Mortality of mice in different days after infection (Pseudomonas aeruginosa; [17]) | Mortality of mice in different days after infection (Staphylococcus aureus; [8]) | Mortality of mice in different days after infection (Staphylococcus aureus; [9]) | Mortality of mice in different days after infection (Staphylococcus aureus; [14]) | Mortality of mice in different days after infection (Staphylococcus aureus; [19]) | Mortality of mice in different days after infection [1, 13] | Mortality of mice in different days after infection [1, 14] | Mortality of mice in different days after infection [1, 15] | Mortality of mice in different days after infection [1, 17] | Mortality of mice in different days after infection [1, 19]
best curative effect: curative effect on mice with multiple mixed infection (in words) ([1]; 1 mg/kg dosage injection)
5.7** day: Mean survival Time [1, 3]
4.4* day: Mean survival Time [1, 2]
1: Mortality of mice in different days after infection (Pseudomonas aeruginosa; [9]) | Mortality of mice in different days after infection (Pseudomonas aeruginosa; [10]) | Mortality of mice in different days after infection (Pseudomonas aeruginosa; [11]) | Mortality of mice in different days after infection (Pseudomonas aeruginosa; [18]) | Mortality of mice in different days after infection (Staphylococcus aureus; [5]) | Mortality of mice in different days after infection (Staphylococcus aureus; [6]) | Mortality of mice in different days after infection (Staphylococcus aureus; [10]) | Mortality of mice in different days after infection (Staphylococcus aureus; [11]) | Mortality of mice in different days after infection (Staphylococcus aureus; [12]) | Mortality of mice in different days after infection (Staphylococcus aureus; [13]) | Mortality of mice in different days after infection (Staphylococcus aureus; [15]) | Mortality of mice in different days after infection (Staphylococcus aureus; [16]) | Mortality of mice in different days after infection (Staphylococcus aureus; [17]) | Mortality of mice in different days after infection (Staphylococcus aureus; [18]) | Mortality of mice in different days after infection [1, 16]
5.3 days: average survival time ([1]; high dosage group)
0: Mortality of mice in different days after infection (Pseudomonas aeruginosa; [5]) | Mortality of mice in different days after infection (Pseudomonas aeruginosa; [6]) | Mortality of mice in different days after infection (Pseudomonas aeruginosa; [7]) | Mortality of mice in different days after infection (Pseudomonas aeruginosa; [19]) | Mortality of mice in different days after infection (Staphylococcus aureus; [7]) | Mortality of mice in different days after infection [1, 18]
8.6** day: Mean survival Time (Pseudomonas aeruginosa; [4])
5.3** day: Mean survival Time [1, 4]
6.3** day: Mean survival Time (Staphylococcus aureus; [2])
6.7** day: Mean survival Time (Pseudomonas aeruginosa; [2])
7.3** day: Mean survival Time (Staphylococcus aureus; [3])
9.9** day: Mean survival Time (Staphylococcus aureus; [4])
very good: anti-infection effect (in words) (Pseudomonas aeruginosa; high, middle and low dose injection, systemic infection of Pseudomonas aeruginosa) | anti-infection effect (in words) (Staphylococcus aureus; high, middle and low dose injection, systemic infection of Staphylococcus aureus)
